Assay results taken from patent US8785439B2, “2,5,7-substituted oxazolopyrimidine derivatives” (Sanofi, priority 2010, dated 2014).

Biological target: T1, human Edg-1 receptor (Homo sapiens, UniProt P21453)
T1 construct: FLAG (N); expressed in transfected cells; membrane preparation
Test: GTP-γ-S assay using human Edg-1 receptors (SPA, CHO Flp-In cell membrane preparation)
Type: biochemical
Settings: test compound at 10 μM; high control 10 μM S1P regarded as 100% activation; background-corrected; triplicate
Description: Determination of the Pharmacological Activity A) GTP-γ-S Assay Using Human Edg-1 Receptors
In order to determine the Edg-1 receptor activation by the compounds of the invention, a GTP-γ-S (guanosine 5′-[γ-thio]triphosphate) assay for G-protein coupled receptor binding based on the scintillation proximity assay principle was used, employing a cell membrane preparation from a CHO Flp-In cell line which constitutively overexpresses the human Edg-1 receptor.
The Flp-In™ expression system (Invitrogen, cat. no. K6010-01) allows the generation of stable mammalian cell lines into which the gene of interest has been integrated through homologous recombination at a specific genomic location called Flp Recombination Target (FRT) site by means of a Flp recombinase encoded by the pOG44 expression plasmid. The integration of the pcDNA5/FRT expression construct into the Flp-In host cell line genome results in the transcription of the gene of interest. The stably transfected cells become hygromycin-resistant.
One day prior to transfection, 200 000 Flp-In-CHO cells were seeded in Ham F-12 medium (Invitrogen, cat. no. 31765) supplemented with 10% fetal calf serum (FCS; Perbio Science, cat. no. SH30068.03) in a 6-well plate and incubated at 37° C./5% CO2 overnight. Using the FuGENE® 6 transfection reagent (Roche, cat. no. 11988387001), cells were cotransfected with the Flp recombinase expression plasmid pOG44 and a modified plasmid additionally containing the edg-1 gene (accession no. NM_001400) termed as pcDNA5-FRT-TO_nFLAG_DEST-EDG-1 with a 9:1 ratio. To obtain the modified pcDNA5-FRT-TO_nFLAG_DEST plasmid, the Invitrogen plasmid pcDNA5/FRT/TO (Invitrogen, cat. no. V6520-20) was adapted to the Gateway® (Invitrogen) cloning system by inserting a Gateway cassette containing attR recombination sites flanking a ccdB gene and a chloramphenicol-resistance gene (Gateway conversion system, Invitrogen, cat. no. 11828-029). In addition a FLAG tag epitope was added before the 5′ att recombination site to allow recombinant expression of N-terminally FLAG-tagged proteins.
For the transfection of one well, 1.08 μg of pOG44 and 0.12 μg of pcDNA5-FRT-TO_nFLAG_DEST-EDG-1 were mixed with 100 μl of serum-free Ham F-12 medium containing 6 μl of FuGENE® 6 transfection reagent. After 20 min of incubation, the transfection reagent/DNA complex was distributed dropwise on the cells. The cells were incubated for 24 h at 37° C. Then the cells from 3 wells each were transferred to a T75 flask (Greiner Cellstar®, cat. no. 658175) containing Ham F-12 medium supplemented with 10% of FCS but without antibiotic and were incubated another 24 h. 48 h after transfection, the medium was replaced by selection medium (Ham F-12 supplemented with 10% of FCS and 300 μg/ml of hygromycin B (Invitrogen, cat. no. 10687-010)). The medium was exchanged every 2 to 3 days until a resistant population of cells had grown. […] After 2 weeks of selection, the cells were transferred into T175 flasks (Greiner Cellstar®, cat. no. 660175) and cultivated for batch production. Cells were harvested from the culture flasks by short treatment (2 to 5 min) with Accutase (PAA, cat. no. L11-007), resuspended in selection medium (see above) and centrifuged at 200×g for 5 min. Cells were resuspended in a mixture of 90% of FCS and 10% of dimethylsulfoxide and stored frozen in liquid nitrogen.
A membrane preparation was obtained by standard methods from the afore-described CHO Flp-In cell line constitutively overexpressing the human Edg-1 receptor. Briefly, the cryopreserved cells were taken in culture and grown until confluency in T175 cell culture flasks (Becton Dickinson, cat. no. 35 5001). […]

T1 sequence (P21453 whole entry): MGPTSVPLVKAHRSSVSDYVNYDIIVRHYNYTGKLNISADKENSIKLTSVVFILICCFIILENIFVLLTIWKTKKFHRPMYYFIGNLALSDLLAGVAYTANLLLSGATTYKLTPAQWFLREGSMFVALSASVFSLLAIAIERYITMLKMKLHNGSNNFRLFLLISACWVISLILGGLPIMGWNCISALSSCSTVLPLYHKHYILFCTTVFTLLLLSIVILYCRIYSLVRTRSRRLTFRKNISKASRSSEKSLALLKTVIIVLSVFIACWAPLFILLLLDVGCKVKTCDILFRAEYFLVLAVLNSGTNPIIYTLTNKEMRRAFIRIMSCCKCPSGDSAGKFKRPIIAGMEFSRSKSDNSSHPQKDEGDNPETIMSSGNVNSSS

% Activation (Edg-1 receptor activation in percent of the activation by 10 μM S1P) [%]	Molecule
108	5-(2-fluoro-phenoxy)-2-(1-oxy-pyridin-3-yl)-7-propoxy-oxazolo[5,4-d]pyrimidine [Example 109]

Same assay, conditions: test compound at 10 μM; high control 10 μM S1P regarded as 100% activation; background-corrected; triplicate; read-out: % Activation (Edg-1 receptor activation in percent of the activation by 10 μM S1P)

Molecule	activation at 10 µM [%]
CCCOc1nc(Oc2ccc(Cl)c(Cl)c2)nc2oc(-c3cccc(C)c3)nc12 [Example 1, 5-(3,4-Dichloro-phenoxy)-7-propoxy-2-(3-methyl-phenyl)-oxazolo[5,4-d]pyrimidine]	62
CCCOc1nc(OC2CCCCC2)nc2oc(-c3cccc(C)c3)nc12 [Example 2, 5-Cyclohexyloxy-7-propoxy-2-(3-methyl-phenyl)-oxazolo[5,4-d]pyrimidine]	90
CCCOc1nc(NC2CCOCC2)nc2oc(-c3cccc(C)c3)nc12 [Example 3, (7-Propoxy-2-(3-methyl-phenyl)-oxazolo[5,4-d]pyrimidin-5-yl)-(tetrahydro-pyran-4-yl)-amine]	74
CCCOc1nc(Sc2nccs2)nc2oc(-c3cccc(C)c3)nc12 [Example 4]	93
CCCOc1nc(Oc2ccccc2F)nc2oc(-c3cc(C)c(OC)c(C)c3)nc12 [Example 5, 5-(2-Fluoro-phenoxy)-2-(4-methoxy-3,5-dimethyl-phenyl)-7-propoxy-oxazolo[5,4-d]pyrimidine]	111
CCCOc1nc(Oc2ccccc2F)nc2oc(-c3cc(C)c(O)c(C)c3)nc12 [Example 6, 5-(2-Fluoro-phenoxy)-2-(4-hydroxy-3,5-dimethyl-phenyl)-7-propoxy-oxazolo[5,4-d]pyrimidine]	105
CCOc1nc(Oc2ccccc2F)nc2oc(-c3ccc[n+]([O-])c3)nc12 [Example 7, 7-Ethoxy-5-(2-fluoro-phenoxy)-2-(1-oxy-pyridin-3-yl)-oxazolo[5,4-d]pyrimidine]	116
COc1c(C)cc(-c2nc3c(OC4COC4)nc(Oc4ccccc4F)nc3o2)cc1C [Example 8, 5-(2-Fluoro-phenoxy)-2-(4-methoxy-3,5-dimethyl-phenyl)-7-(oxetan-3-yloxy)-oxazolo[5,4-d]pyrimidine]	124
C=CCCCOc1nc(OCCC)c2nc(-c3cccc(C)c3)oc2n1 [Example 9, 5-Pent-4-enyloxy-7-propoxy-2-(3-methylphenyl)-oxazolo[5,4-d]pyrimidine]	87
CCOc1nc(Oc2cc(C)nn2C)nc2oc(-c3cc(F)ccc3Cl)nc12 [Example 10, 2-(2-chloro-5-fluoro-phenyl)-5-(2,5-dimethyl-2H-pyrazol-3-yloxy)-7-ethoxy-oxazolo[5,4-d]pyrimidine]	107
Cc1cc(Oc2nc(OCC3CC3)c3nc(-c4cc(F)ccc4Cl)oc3n2)n(C)n1 [Example 11, 2-(2-chloro-5-fluoro-phenyl)-7-cyclopropylmethoxy-5-(2,5-dimethyl-2H-pyrazol-3-yloxy)-oxazolo[5,4-d]pyrimidine]	105
CCOc1nc(Sc2ccc(F)c(F)c2)nc2oc(-c3cccc(C)c3)nc12 [Example 12, 5-(3,4-difluoro-phenylsulfanyl)-7-ethoxy-2-(3-methyl-phenyl)-oxazolo[5,4-d]pyrimidine]	84
O=S1(=O)CCC(Sc2nc(OCC3CC3)c3nc(-c4cc(F)ccc4Cl)oc3n2)C1 (centres unmarked) [Example 13, 2-(2-chloro-5-fluoro-phenyl)-7-cyclopropylmethoxy-5-(1,1-dioxo-tetrahydro-1lambda6-thiophen-3-ylsulfanyl)-oxazolo[5,4-d]pyrimidine]	104
CCCOc1nc(SC2CCS(=O)(=O)C2)nc2oc(-c3cccc(F)c3)nc12 (centres unmarked) [Example 14, 5-(1,1-dioxo-tetrahydro-1lambda6-thiophen-3-ylsulfanyl)-2-(3-fluoro-phenyl)-7-propoxy-oxazolo[5,4-d]pyrimidine]	72
CCCOc1nc(Oc2ccccc2F)nc2oc(-c3ccc(Cl)c(Cl)c3)nc12 [Example 15, 2-(3,4-dichloro-phenyl)-5-(2-fluoro-phenoxy)-7-propoxy-oxazolo[5,4-d]pyrimidine]	95
C=CCCCOc1nc(OCC2CC2)c2nc(-c3cccc(C)c3)oc2n1 [Example 16, 7-cyclopropylmethoxy-5-pent-4-enyloxy-2-(3-methyl-phenyl)-oxazolo[5,4-d]pyrimidine]	83

Results, then the molecule that gave them:

activation at 10 µM [%]	Molecule
55	CCOc1nc(Oc2cccc(S(=O)(=O)N(C)C)c2)nc2oc(-c3cccc(C)c3)nc12 [Example 17, 3-(7-ethoxy-2-(3-methyl-phenyl)-oxazolo[5,4-d]pyrimidin-5-yloxy)-N,N-dimethyl-benzenesulfonamide]
42	CCCOc1nc(Oc2ccc(C)nn2)nc2oc(-c3cccc(F)c3)nc12 [Example 18, 2-(3-fluoro-phenyl)-5-(6-methyl-pyridazin-3-yloxy)-7-propoxy-oxazolo[5,4-d]pyrimidine]
62	CCCOc1nc(Oc2ccc(C)nn2)nc2oc(-c3cccc(C)c3)nc12 [Example 19, 5-(6-methyl-pyridazin-3-yloxy)-7-propoxy-2-(3-methyl-phenyl)-oxazolo[5,4-d]pyrimidine]
83	CCCOc1nc(Oc2cccc(S(N)(=O)=O)c2)nc2oc(-c3cccc(C)c3)nc12 [Example 20, 3-(7-propoxy-2-(3-methyl-phenyl)-oxazolo[5,4-d]pyrimidin-5-yloxy)-benzenesulfonamide]
81	CCOc1nc(Oc2cccc(S(N)(=O)=O)c2)nc2oc(-c3cc(F)ccc3Cl)nc12 [Example 21, 3-[2-(2-chloro-5-fluoro-phenyl)-7-ethoxy-oxazolo[5,4-d]pyrimidin-5-yloxy]-benzenesulfonamide]
100	CCOc1nc(Oc2cccc(S(N)(=O)=O)c2)nc2oc(-c3cccc(C)c3)nc12 [Example 22, 3-(7-ethoxy-2-(3-methyl-phenyl)-oxazolo[5,4-d]pyrimidin-5-yloxy)-benzenesulfonamide]
47	CCCOc1nc(Oc2cccc(S(N)(=O)=O)c2)nc2oc(-c3cccc(F)c3)nc12 [Example 23, 3-[2-(3-fluoro-phenyl)-7-propoxy-oxazolo[5,4-d]pyrimidin-5-yloxy]-benzenesulfonamide]
99	CCCOc1nc(Oc2cc(C)nn2C)nc2oc(-c3cccc(F)c3)nc12 [Example 24, 5-(2,5-dimethyl-2H-pyrazol-3-yloxy)-2-(3-fluoro-phenyl)-7-propoxy-oxazolo[5,4-d]pyrimidine]
110	CCCOc1nc(Oc2cc(C)nn2C)nc2oc(-c3cccc(C)c3)nc12 [Example 25, 5-(2,5-dimethyl-2H-pyrazol-3-yloxy)-7-propoxy-2-(3-methyl-phenyl)-oxazolo[5,4-d]pyrimidine]
101	CCOc1nc(Oc2cc(C)nn2C)nc2oc(-c3cccc(C)c3)nc12 [Example 26, 5-(2,5-dimethyl-2H-pyrazol-3-yloxy)-7-ethoxy-2-(3-methyl-phenyl)-oxazolo[5,4-d]pyrimidine]
93	CCCOc1nc(SC2CCS(=O)(=O)C2)nc2oc(-c3cccc(C)c3)nc12 (centres unmarked) [Example 27, 5-(1,1-dioxo-tetrahydro-1lambda6-thiophen-3-ylsulfanyl)-7-propoxy-2-(3-methyl-phenyl)-oxazolo[5,4-d]pyrimidine]
69	Cc1cccc(-c2nc3c(OCC4CC4)nc(SC4CCS(=O)(=O)C4)nc3o2)c1 (centres unmarked) [Example 28, 7-cyclopropylmethoxy-5-(1,1-dioxo-tetrahydro-1lambda6-thiophen-3-ylsulfanyl)-2-(3-methyl-phenyl)-oxazolo[5,4-d]pyrimidine]
